Results reported in paper PMC11940343, “In Vitro and In Vivo Evaluation of the De Novo Designed Antimicrobial Peptide P6.2 Against a KPC-Producing P. aeruginosa Clinical Isolate” (Biomolecules, 2025).
No end group written: not given here.

Legend:
[1] = test system: P. aeruginosa strain PA01; details: sub-MIC concentrations, reference strain PAO1; cited from earlier work
From the text: Biofilms are complex bacterial communities characterized by extensive intercellular interactions. Biofilm-associated bacteria, including P. aeruginosa, are commonly implicated in chronic infections that can persist for years. As such, managing biofilm-associated infections has become a critical focus in antimicrobial therapy, given their resistance to conventional antibiotic concentrations.

P. aeruginosa M13513 = assay: Eradication of pre-formed biofilm and cell viability (crystal violet, MTT, CLSM); type: cell-based, Pseudomonas aeruginosa; details: 1xMIC to 8xMIC
Procedure: Biofilms of P. aeruginosa M13513 were grown in 96-well flat-bottom polystyrene plates using CAMHB for 24 h. Once the biofilms were established, the supernatant was removed, and 100 µL of CAMHB containing two-fold serial dilutions of antimicrobials were added to each well. The plates were then incubated for an additional 24 h at 37 °C.
For each experiment, two sets of plates were prepared: one for biofilm quantification using the crystal violet (CV) staining method described earlier, and another to assess bacterial cell viability within the biofilm using the MTT assay (3-(4,5-dimethylthiazol-2-yl)-2,5-diphenyltetrazolium bromide). To perform the MTT assay, the medium was carefully removed, and biofilms were washed three times with 200 µL of saline solution. Subsequently, 100 µL of a 0.05% (w/v) MTT solution was added to each well, and the plates were incubated in the dark at 37 °C for 3 h.
Following incubation, the supernatant was discarded, and the resulting formazan crystals were dissolved in 100 µL of DMSO. The samples were then homogenized by orbital shaking for 10 min. Finally, absorbance was measured at 570 nm using a microplate reader. […]
The proportion of live and dead bacteria was determined by analyzing three representative images from each biofilm sample using the ImageJ software 1.52v with the FIJI plugin.

[2] = test system: A549 (human lung adenocarcinoma, ATCC CCL-185); type: cell-based
Procedure: (§1) The toxic effect was evaluated indirectly using the colorimetric MTT assay (3-[4,5-dimethylthiazol-2-yl]-2,5-diphenyl tetrazolium bromide, Thermo Fisher Scientific Inc, Massachusetts, USA) on A549 (human lung adenocarcinoma, ATCC CCL-185) and RAW 264.7 (murine macrophage-like ATCC TIB-71) cell lines. Cell lines were kindly provided by Instituto de Virología e Innovaciones Tecnológicas (IVIT), (INTA-CONICET, Buenos Aires, Argentina).
(§2) For the assay, A549 cells were seeded in 96-well plates at a density of 1 × 10^4 cells per well, while RAW 264.7 cells were seeded at a density of 5 × 10^4 cells per well. The plates were incubated for 24 h at 37 °C with 5% CO^2 to allow cell adhesion. The peptide P6.2 was dissolved in distilled water at a stock concentration of 10.24 mg/mL, and serial dilutions were made in RPMI-1640 medium supplemented with 10% fetal bovine serum (FBS, Internegocios S.A., Mercedes, Argentina). The concentrations used to assess P6.2 toxicity were the same as those previously employed in bacterial studies to determine the minimum inhibitory concentration (MIC) in antimicrobial activity assays. For the A549 cell line, P6.2 concentrations ranged from 4 µg/mL to 1024 µg/mL using serial dilutions in culture medium. For the RAW 264.7 cells, P6.2 concentrations ranged from 256 µg/mL to 8 µg/mL, with the concentration range adjusted based on preliminary results obtained from the A549 cell line.
(§3) Peptides were added and plates were incubated for 24 h at 37 °C in a 5% CO2 atmosphere. After incubation, the culture medium was removed, and the cells were washed with PBS (Phosphate Buffered Saline pH 7.2) to remove any remnants of the treatments. Next, 100 µL of MTT solution (0.5 mg/mL in PBS) was added to each well, and the plates were incubated for 0.5 to 3 h at 37 °C. During this period, viable cells reduced MTT, forming visible formazan crystals under a light field microscope (Zeiss Primovent, Oberkochen, Germany), indicating the cell metabolism of the compound.
(§4) At the end of the incubation, the supernatant was removed, and 200 µL of DMSO was added to each well to dissolve the formazan crystals. The plates were shaken to homogenize the contents, and absorbance was measured at 570 nm using a microplate reader (RT2100, Rayto Life and Analytical Sciences Co., Ltd, Shenzhen, China). Triplicates were run for each treatment. Cell viability was calculated by setting the absorbance value obtained for untreated control cells as 100% viability.

[3] = test system: RAW 264.7 (murine macrophage-like ATCC TIB-71); type: cell-based
Procedure: as §1, §2, §3, §4

GLLRKWGKKWKEFLRRVWK-NH2 [Peptide P6.2]
anti-biofilm activity [1]: did not display anti-biofilm activity | bacterial viability inside the pre-formed biofilm (P. aeruginosa M13513; MTT assay, confirmed by SYTO9/PI confocal microscopy): significantly decreased the bacterial viability inside the biofilm | pre-formed biofilm mass (P. aeruginosa M13513; crystal violet, 24 h treatment): diminished the biofilm mass | LogCC50 [2]: 2.100 | CC50 (cytotoxic concentration 50%) ([2]; 24 h): 125.8 µg/mL | LogCC50 [3]: 2.188 | CC50 (cytotoxic concentration 50%) ([3]; 24 h): 154.1 µg/mL
